Results reported in patent publication US20260283925A1, “NOVEL PEPTIDE HAVING ACTIVITY OF RETARDING DEGRADATION OF HYALURONIC ACID AND USES THEREOF” (CAREGEN CO., LTD., priority 2023, published 2026).

Columns and labels:
[1] = system: HaCaT cells (human keratinocyte cell line); experiment: Cell proliferation analysis (MTT); type: cell-based; conditions: peptide 1.6-1000 μM, 72 hours, FIG. 1
Experimental: (§1) NIH3T3 cells (mouse fibroblast) and HaCaT cells (human keratinocyte cell line) were seeded at a density of 1×10^4 cells/well in a 96-well plate and cultured for 24 hours. The cells were washed once with serum-free DMEM medium. Different amounts of peptides were added to 200 μL of serum-free DMEM medium to prepare peptide medium solutions having concentrations of 1.6 μM, 8 μM, 40 μM, 200 μM, and 1000 μM, and the prepared peptide medium solutions were treated to the washed cells. Then, the treated cells were cultured in a CO2 incubator at 37° C. for 72 hours, washed twice with PBS, and MTT (Sigma, Cat. No.: M2003, USA) solution was dispensed into each well to a final concentration of 0.5 mg/mL. Then, after blocking light, the cells were cultured in a CO2 incubator at 37° C. for 4 hours. The absorbance was measured at 540 nm using a microplate reader (SpectraMax iD3, Molecular devices, USA).

[2] = system: NIH3T3 cells (mouse fibroblast); experiment: Cell proliferation analysis (MTT); type: cell-based; conditions: peptide 1.6-1000 μM, 72 hours, FIG. 1
Experimental: as §1

[3] = system: HaCaT cells (human keratinocyte cell line); experiment: Promotion of collagen and hyaluronic acid (HA) expression, ELISA of culture supernatant; type: cell-based; conditions: 50 μM to 200 μM, 72 hours, FIG. 2
Experimental: (§2) NIH3T3 cells (mouse fibroblast) and HaCaT cells (human keratinocyte cell line) were seeded at a density of 1×10^4 cells/well in a 24-well plate and cultured for 24 hours. The cells were washed once with serum-free DMEM medium. Different amounts of peptides were added to 500 μL of serum-free DMEM medium to prepare peptide medium solutions having concentrations of 50 μM, 100 μM, and 200 μM, and the washed cells were treated with the prepared peptide medium solutions. As a positive control, 100 nM […] was used in NIH3T3 cells and 100 nM IGF-1 was used in HaCaT cells. The treated cells were then cultured in a CO2 incubator at 37° C. for 72 hours. The cell culture liquid was collected, centrifuged, and the supernatant was transferred to a tube. The obtained supernatant was subjected to ELISA analysis using the Collagen ELISA kit (Abcam, Cat No.: ab210579, UK) and HA ELISA kit (ECHELON Biosciences, Cat No.: K-1200, USA), respectively.

[4] = system: NIH3T3 cells (mouse fibroblast); experiment: as above; type: cell-based; conditions: 50 μM to 200 μM, 72 hours, FIG. 2
Experimental: as §2

[5] = system: hyaluronidase from bovine testes; experiment: Delay of hyaluronic acid degradation by hyaluronidase in hyaluronic acid solution (viscosity, rheometer); type: biochemical; conditions: 1.5 wt % hyaluronic acid in PBS
Experimental: Hyaluronic acid was dissolved in PBS to a concentration of 1.5 wt % and hydrated, and 10 g of this solution was dispensed into each conical tube. Peptide solutions were added to the dispensed hyaluronic acid solutions so that the final peptide concentrations were 0 ppm (no addition), 100 ppm, 1000 ppm, and 5000 ppm, respectively. 2 mL of hyaluronic acid degrading enzyme (hyaluronidase from bovine testes, Hadase, Sigma) was added to each conical tube. Viscosity was measured using a rheometer (single shear stress) by sampling at 0 and 30 minutes to compare the viscosity values according to the peptide concentration. As above, the 1.5 wt % hyaluronic acid solution containing the peptides at each concentration was treated with hyaluronidase, and the enzymatic reaction was maintained for 30 minutes to decompose hyaluronic acid. After the degradation reaction, the viscosity of the hyaluronic acid solution was measured to confirm the degradation delay efficacy.

[6] = system: hyaluronidase (HAdase); experiment: Delay of hyaluronic acid degradation by hyaluronidase in BDDE-cross-linked hyaluronic acid filler (Congo Red diffusion, absorbance 500 nm); type: biochemical; conditions: 24 hours after treatment with hyaluronidase, 37° C., FIG. 4
Experimental: A 1,4-Butanediol diglycidyl ether (BDDE)-cross-linked hyaluronic acid filler with or without the peptide of Preparation Example 1 was prepared, and Congo Red and hyaluronidase (HAdase) were prepared as absorbing dyes. 20 μL of 1 mM Congo Red was added to a 1.5 mL eppendorf tube, and 100 μL each of the peptide-free filler (control filler) and the peptide-containing filler were added on the absorbing dye. Each was treated with 350 μL of 0.15 mg/mL (108 units) of hyaluronidase. Each tube was placed in an incubator at 37° C., and 100 μL of the sample supernatant was collected at time points of 6 and 24 hours and transferred to a 96-well. The absorbance was measured at 500 nm using a microplate reader (SpectraMax iD3, Molecular Devices, USA). As above, BDDE-cross-linked hyaluronic acid filler samples with or without the peptide were prepared, and the degree of degradation of the hyaluronic acid filler by hyaluronidase was compared depending on the presence or absence of the peptide. The degree of degradation of the hyaluronic acid filler was measured by the change in absorbance according to the diffusion of the dye. That is, the principle, in which the flowability of the sample increases when hyaluronic acid is degraded by the degradation enzyme, thereby increasing the diffusion of the dye, was utilized.

[7] = Delay of hyaluronic acid degradation by reactive oxygen species in hyaluronic acid solution (viscosity, rheometer); conditions: 1.5 wt % hyaluronic acid in PBS, peptide 100, 1000, 5000 ppm, 500 mM H2O2, 60 and 180 minutes, FIG. 5
Experimental: Hyaluronic acid was dissolved in PBS to a concentration of 1.5 wt % and hydrated, and 10 g of this solution was dispensed into each conical tube. Peptide solutions were added to the dispensed hyaluronic acid solutions so that the final peptide concentrations were 0 ppm (no addition), 100 ppm, 1000 ppm, and 5000 ppm, respectively. 2 mL of 500 mM hydrogen peroxide (H2O2) was added to each. Viscosity was measured using a rheometer (single shear stress) by sampling at 0, 30, 60, and 180 minutes to compare the viscosity values according to the peptide concentration. As above, 1.5 wt % hyaluronic acid solutions containing peptides at each concentration were treated with hydrogen peroxide to maintain the degradation reaction by reactive oxygen species for 60 and 180 minutes, thereby degrading hyaluronic acid. After the degradation reaction, the viscosity of each hyaluronic acid solution was measured to confirm the degradation delaying efficacy.

[8] = Delay of hyaluronic acid degradation by reactive oxygen species in BDDE-cross-linked hyaluronic acid filler (Congo Red diffusion, absorbance 500 nm); conditions: 37° C., FIG. 6
Experimental: A 1,4-Butanediol diglycidyl ether (BDDE)-cross-linked hyaluronic acid filler with or without the peptide of Preparation Example 1 was prepared, and Congo Red and hyaluronidase (HAdase) as absorbing dyes were prepared. 20 μL of 1 mM Congo Red was added to each 1.5 mL eppendorf tube, and 100 μL each of the peptide-free filler (control filler) and the peptide-containing filler were added on the absorbing dye. Each was treated with 350 μL of 500 mM hydrogen peroxide (H2O2). Each tube was placed in an incubator at 37° C., and 100 μL of the sample supernatant was collected at time points of 1 hour, 3 hours, 6 hours, 24 hours, 48 hours, and 72 hours and transferred to 96-wells. The absorbance was measured at 500 nm using a microplate reader (SpectraMax iD3, Molecular devices, USA). As above, BDDE-cross-linked hyaluronic acid filler samples with or without the peptide were prepared, and the degree of degradation of hyaluronic acid filler by reactive oxygen species was compared depending on the presence or absence of peptide. The degree of degradation of hyaluronic acid filler was measured by the change in absorbance due to the diffusion of dye. That is, the principle that the flowability of the sample increases when hyaluronic acid is degraded by reactive oxygen species and thus the diffusion of the dye increases was utilized.

[9] = pH stability of peptide (HPLC area); type: physicochemical; conditions: 1000 ppm solution titrated to pH 4, pH 7, pH 10, HPLC area relative to pH 7, FIG. 7b
Experimental: The evaluation of pH stability was performed as follows. A diluted solution of the peptide of Preparation Example 1 at a concentration of 1000 ppm was prepared, and the initial pH value of the solution was measured (pH=3.21). 0.5 M NaOH was added so as to titrate the pH of the solution to pH 4, pH 7, and pH 10, respectively. Each sample was filtered through a 0.22 μm filter. The area values were compared based on pH 7 measured by HPLC.

[10] = Thermal stability of peptide (HPLC area); type: physicochemical; conditions: 1000 ppm solution, 25° C. and 50° C., 72 hours, FIG. 7a
Experimental: The evaluation of thermal stability was performed as follows. A diluted solution of the peptide of Preparation Example 1 at a concentration of 1000 ppm was prepared, dispensed into 50 mL conical tubes, and placed in an incubator at 25° C. and 50° C. After 72 hours, 1 mL of each sample was filtered through a 0.22 μm filter. The area values were compared at 25° C. based on pH 7 measured by HPLC.

Sequence: KIWNLEPSRNGT (H2N-Lys-Ile-Trp-Asn-Leu-Glu-Pro-Ser-Arg-Asn-Gly-Thr-COOH) [peptide having SEQ ID NO: 1]
- effect of promoting cell proliferation [1]: significant effect of promoting cell proliferation
- effect of promoting cell proliferation [2]: significant effect of promoting cell proliferation
- collagen expression ([3]; Collagen ELISA): significant increase in collagen expression
- hyaluronic acid (HA) expression ([3]; HA ELISA): increase in hyaluronic acid (HA) expression
- collagen expression ([4]; Collagen ELISA): significant increase in collagen expression
- hyaluronic acid (HA) expression ([4]; HA ELISA): increase in hyaluronic acid (HA) expression
- difference in the degradation delay efficacy of 1000 ppm and 5000 ppm ([5]; hyaluronidase 30 minutes): not significant
- degradation delay efficacy (viscosity of hyaluronic acid solution after hyaluronidase) ([5]; peptide 100, 1000, 5000 ppm, 30 minutes, FIG. 3): degradation of hyaluronic acid was delayed as the concentration of the peptide increased
- improvement of delay of degradation versus peptide-free filler [6]: ≥ 15%
- degradation delaying efficacy (viscosity of hyaluronic acid solution after hydrogen peroxide) [7]: degradation of hyaluronic acid was delayed as the concentration of peptide increased
- improvement of degradation delay versus peptide-free filler ([8]; 24 hours after treatment with 500 mM hydrogen peroxide): ≥ 50%
- effect of delaying degradation ([8]; treated 48 hours with 500 mM hydrogen peroxide, filler without peptides mostly degraded): 85%
- pH stability [9]: stable even at a high temperature of 50 °C and in the range of pH 4 to pH 10
- thermal stability [10]: stable even at a high temperature of 50 °C
